The compounds below were run against JAK1 (Homo sapiens (Human), UniProt P23458) (assay: Analysis of JAK1 activity inhibition ability (ADP-Glo Kinase Assay)). Settings: JAK1 enzyme, ADP-Glo luminescence, ATP 250 uM, IRS-itide substrate, 30° C. 40 minutes; read-out: IC50.
Format: biochemical
In short: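 JAK1 enzyme, IRS-itide substrate (40 ng/mL) and 250 uM ATP, both as prepared in kinase buffer (Tris-HCl pH 7.5, MgCl2, BSA, DTT), reacted with compound 40 min at 30 °C. ADP formed was detected by ADP-Glo luminescence; IC50 is the concentration giving 50% inhibition versus control.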

JAK1, sequence (P23458 whole entry): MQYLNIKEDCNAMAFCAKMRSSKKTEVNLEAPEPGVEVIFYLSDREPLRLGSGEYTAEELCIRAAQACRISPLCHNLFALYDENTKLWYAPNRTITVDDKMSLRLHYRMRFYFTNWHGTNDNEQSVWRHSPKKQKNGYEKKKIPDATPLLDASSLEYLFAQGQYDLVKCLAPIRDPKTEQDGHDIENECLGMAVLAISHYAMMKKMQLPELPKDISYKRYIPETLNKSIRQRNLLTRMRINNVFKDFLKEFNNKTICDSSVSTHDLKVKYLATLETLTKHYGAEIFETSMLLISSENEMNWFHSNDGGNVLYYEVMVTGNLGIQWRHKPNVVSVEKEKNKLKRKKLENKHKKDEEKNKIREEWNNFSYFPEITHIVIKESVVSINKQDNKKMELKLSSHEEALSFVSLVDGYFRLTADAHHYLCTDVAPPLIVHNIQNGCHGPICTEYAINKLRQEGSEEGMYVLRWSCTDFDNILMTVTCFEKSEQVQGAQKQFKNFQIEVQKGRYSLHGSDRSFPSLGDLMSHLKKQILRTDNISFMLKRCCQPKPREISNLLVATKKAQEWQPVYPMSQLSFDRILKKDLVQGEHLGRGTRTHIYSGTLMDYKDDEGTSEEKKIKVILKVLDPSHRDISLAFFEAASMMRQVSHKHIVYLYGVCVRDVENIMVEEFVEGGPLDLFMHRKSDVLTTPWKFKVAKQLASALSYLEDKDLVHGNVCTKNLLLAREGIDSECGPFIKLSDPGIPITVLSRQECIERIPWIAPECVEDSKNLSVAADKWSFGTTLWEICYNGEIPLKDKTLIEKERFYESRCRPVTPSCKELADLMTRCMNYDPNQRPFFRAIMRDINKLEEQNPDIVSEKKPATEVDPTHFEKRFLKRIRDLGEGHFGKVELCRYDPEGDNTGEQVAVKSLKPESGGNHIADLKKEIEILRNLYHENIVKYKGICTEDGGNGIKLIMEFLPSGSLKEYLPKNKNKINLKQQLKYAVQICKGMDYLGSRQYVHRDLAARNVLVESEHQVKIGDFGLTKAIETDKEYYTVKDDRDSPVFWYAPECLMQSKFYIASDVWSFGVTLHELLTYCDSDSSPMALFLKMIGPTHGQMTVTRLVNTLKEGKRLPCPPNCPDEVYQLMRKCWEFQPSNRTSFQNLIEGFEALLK

IC50	Structure (SMILES)
< 20 nM	O=C(Nc1nc(-c2ccc(NS(=O)(=O)C3CCCCC3)cc2)c2cc[nH]c2n1)C1CC1 [Example 183, N-(4-(4-(cyclohexanesulfonamido)phenyl)-7H-pyrrolo[2,3-d]pyrimidin-2-yl)cyclopropanecarboxamide]
20 to 200 nM	O=C(Nc1cc(-c2ccc(C(=O)N3CCSCC3)cc2)c2cc[nH]c2n1)C1CC1 [Example 521, N-(4-(4-(thiomorpholine-4-carbonyl)phenyl)-1H-pyrrolo[2,3-b]pyridin-6-yl)cyclopropanecarboxamide]
< 20 nM	O=C(Nc1cc(-c2ccc(NS(=O)(=O)CCCF)cc2)c2cc[nH]c2n1)C1CC1 [Example 3, N-(4-(4-((3-fluoropropyl)sulfonamido)phenyl)-1H-pyrrolo[2,3-b]pyridin-6-yl)cyclopropanecarboxamide]
< 20 nM	CC1CN(C(=O)CC#N)CC=C1c1cc(NC(=O)C2CC2)nc2[nH]ccc12 (stereo not drawn) [Example 283, N-(4-(1-(2-cyanoacetyl)-3-methyl-1,2,3,6-tetrahydropyridin-4-yl)-1H-pyrrolo[2,3-b]pyridin-6-yl)cyclopropanecarboxamide]
20 to 200 nM	Cc1cc(NS(=O)(=O)NCC(F)(F)F)ccc1-c1cc(NC(=O)C2CC2)nc2[nH]ccc12 [Example 227, N-(4-(2-methyl-4-((N-(2,2,2-trifluoroethyl)sulfamoyl)amino)phenyl)-1H-pyrrolo[2,3-b]pyridin-6-yl)cyclopropanecarboxamide]
> 200 nM	N#CCCCS(=O)(=O)Nc1ccc(-c2nc(NC(=O)C3CC3)nc3[nH]cnc23)cc1 [Example 210, N-(6-(4-((3-cyanopropyl)sulfonamido)phenyl)-9H-purin-2-yl)cyclopropanecarboxamide]
20 to 200 nM	C[C@@H]1CN(C(=O)C(C#N)=Cc2cccs2)CC=C1c1cc(NC(=O)C2CC2)nc2[nH]ccc12 [Example 403, (S)—N-(4-(1-(2-cyano-3-(thiophen-2-yl)acryloyl)-3-methyl-1,2,3,6-tetrahydropyridin-4-yl)-1H-pyrrolo[2,3-b]pyridin-6-yl)cyclopropanecarboxamide]
< 20 nM	O=C(Nc1cc(-c2ccc(NS(=O)(=O)N3CCCCC3)cc2)c2cc[nH]c2n1)C1CC1 [Example 219, N-(4-(4-(piperidine-1-sulfonamido)phenyl)-1H-pyrrolo[2,3-b]pyridin-6-yl)cyclopropanecarboxamide]
20 to 200 nM	O=C(Nc1cc(C2=CCC(NC3CCN(C(=O)c4ccnc(F)c4)CC3)CC2)c2cc[nH]c2n1)C1CC1 (stereo not drawn) [Example 493, N-(4-(4-((1-(2-fluoroisonicotinoyl)piperidin-4-yl)amino)cyclohex-1-en-1-yl)-1H-pyrrolo[2,3-b]pyridin-6-yl)cyclopropanecarboxamide]
20 to 200 nM	O=C(Nc1cc(C2=CCN(C(=O)C3CC3C(F)(F)F)CC2)c2cc[nH]c2n1)C1CC1 (stereo not drawn) [Example 282, N-(4-(1-(2-(trifluoromethyl)cyclopropane-1-carbonyl)-1,2,3,6-tetrahydropyridin-4-yl)-1H-pyrrolo[2,3-b]pyridin-6-yl)cyclopropanecarboxamide]
20 to 200 nM	CNC(=O)Cc1ccc(-c2cc(NC(=O)C3CC3)nc3[nH]ccc23)cc1 [Example 539, N-(4-(4-(2-(methylamino)-2-oxoethyl)phenyl)-1H-pyrrolo[2,3-b]pyridin-6-yl)cyclopropanecarboxamide]
20 to 200 nM	N#CC1(CC(=O)Nc2ccc(-c3cc(NC(=O)C4CC4)nc4[nH]ccc34)cc2)CC1 [Example 241, N-(4-(4-(2-(1-cyanocyclopropyl)acetamido)phenyl)-1H-pyrrolo[2,3-b]pyridin-6-yl)cyclopropanecarboxamide]
< 20 nM	CS(=O)(=O)N1CCN(S(=O)(=O)Nc2ccc(-c3cc(NC(=O)C4CC4)nc4[nH]ccc34)cc2)CC1 [Example 230, N-(4-(4-((4-(methylsulfonyl)piperazine)-1-sulfonamido)phenyl)-1H-pyrrolo[2,3-b]pyridin-6-yl)cyclopropanecarboxamide]
> 200 nM	N#CCCC(=O)N1C[C@H]2C[C@@H]1CN2c1cc(NC(=O)C2CC2)nc2[nH]ccc12 [Example 682, N-(4-((1R,4R)-5-(3-cyanopropanoyl)-2,5-diazabicyclo[2.2.1]heptan-2-yl)-1H-pyrrolo[2,3-b]pyridin-6-yl)cyclopropanecarboxamide]
> 200 nM	O=C(Nc1cc(C2=CCN(CCN3CCOCC3)C2)c2cc[nH]c2n1)C1CC1 [Example 484, N-(4-(1-(2-morpholinoethyl)-2,5-dihydro-1H-pyrrol-3-yl)-1H-pyrrolo[2,3-b]pyridin-6-yl)cyclopropanecarboxamide]
< 20 nM	O=C(Nc1cc(-c2cnn(C3CN(S(=O)(=O)C(F)(F)F)C3)c2)c2cc[nH]c2n1)C1CC1 [Example 599, N-(4-(1-(1-((trifluoromethyl)sulfonyl)azetidin-3-yl)-1H-pyrazol-4-yl)-1H-pyrrolo[2,3-b]pyridin-6-yl)cyclopropanecarboxamide]

IC50	Structure (SMILES)
> 200 nM	O=C(Nc1cc(N2CCN(S(=O)(=O)CCCF)CC2)c2cc[nH]c2n1)C1CC1 [Example 663, N-(4-(4-((3-fluoropropyl)sulfonyl)piperazin-1-yl)-1H-pyrrolo[2,3-b]pyridin-6-yl)cyclopropanecarboxamide]
20 to 200 nM	Cc1cc(NS(=O)(=O)CC2CC2)ccc1-c1cc(NC(=O)C2CC2)nc2[nH]ccc12 [Example 92, N-(4-(4-((cyclopropylmethyl)sulfonamido)-2-methylphenyl)-1H-pyrrolo[2,3-b]pyridin-6-yl)cyclopropanecarboxamide]
> 200 nM	CCCS(=O)(=O)N1CC=C(c2cc(NC(=O)C3CC3)nc3[nH]ccc23)C1 [Example 212, N-(4-(1-(propylsulfonyl)-2,5-dihydro-1H-pyrrol-3-yl)-1H-pyrrolo[2,3-b]pyridin-6-yl)cyclopropanecarboxamide]
> 200 nM	CN(C)S(=O)(=O)N1CCN(c2cc(NC(=O)C3CC3)nc3[nH]ccc23)CC1 [Example 674, N-(4-(4-(N,N-dimethylsulfamoyl)piperazin-1-yl)-1H-pyrrolo[2,3-b]pyridin-6-yl)cyclopropanecarboxamide]
< 20 nM	CCC1CC(c2cc(NC(=O)C3CC3)nc3[nH]ccc23)=CCN1C(=O)CC#N (stereo in doubt) [Example 417, (R)—N-(4-(1-(2-cyanoacetyl)-2-ethyl-1,2,3,6-tetrahydropyridin-4-yl)-1H-pyrrolo[2,3-b]pyridin-6-yl)cyclopropanecarboxamide]
> 200 nM	COc1ccc(CC(=O)N2CC=C(c3cc(NC(=O)C4CC4)nc4[nH]ccc34)C(C)C2)cc1 (stereo not drawn) [Example 341, N-(4-(1-(2-(4-methoxyphenyl)acetyl)-3-methyl-1,2,3,6-tetrahydropyridin-4-yl)-1H-pyrrolo[2,3-b]pyridin-6-yl)cyclopropanecarboxamide]
20 to 200 nM	O=C(Nc1cc(C2=CCN(S(=O)(=O)CCCF)CC2)c2cc[nH]c2n1)C1CC1 [Example 167, N-(4-(1-((3-fluoropropyl)sulfonyl)-1,2,3,6-tetrahydropyridin-4-yl)-1H-pyrrolo[2,3-b]pyridin-6-yl)cyclopropanecarboxamide]
20 to 200 nM	N#CC1CCN(C(=O)C(F)(F)c2ccc(-c3cc(NC(=O)C4CC4)nc4[nH]ccc34)cc2)CC1 [Example 575, N-(4-(4-(2-(4-cyanopiperidin-1-yl)-1,1-difluoro-2-oxoethyl)phenyl)-1H-pyrrolo[2,3-b]pyridin-6-yl)cyclopropanecarboxamide]
20 to 200 nM	O=C(Nc1cc(-c2ccc(NS(=O)(=O)c3cccc(F)c3)cc2C(F)(F)F)c2cc[nH]c2n1)C1CC1 [Example 122, N-(4-(4-((3-fluorophenyl)sulfonamido)-2-(trifluoromethyl)phenyl)-1H-pyrrolo[2,3-b]pyridin-6-yl)cyclopropanecarboxamide]
20 to 200 nM	O=C(Nc1cc(-c2ccc(NC(=O)N3CCOCC3)cc2)c2cc[nH]c2n1)C1CC1 [Example 432, N-(4-(6-(cyclopropanecarboxamido)-1H-pyrrolo[2,3-b]pyridin-4-yl)phenyl)morpholine-4-carboxamide]
20 to 200 nM	CCCS(=O)(=O)Nc1ccc(-c2cc(NC(=O)C3CC3)nc3[nH]ccc23)c(C#N)c1 [Example 145, N-(4-(2-cyano-4-(propylsulfonamido)phenyl)-1H-pyrrolo[2,3-b]pyridin-6-yl)cyclopropanecarboxamide]
> 200 nM	CCS(=O)(=O)Nc1ccc(-c2nc(NC(=O)C3CC3)nc3[nH]cnc23)cc1 [Example 209, N-(6-(4-(ethylsulfonamido)phenyl)-9H-purin-2-yl)cyclopropanecarboxamide]
20 to 200 nM	CCNC(=O)Nc1ccc(-c2cc(NC(=O)C3CC3)nc3[nH]ccc23)cc1 [Example 431, N-(4-(4-(3-ethylureido)phenyl)-1H-pyrrolo[2,3-b]pyridin-6-yl)cyclopropanecarboxamide]
20 to 200 nM	Cc1cc(C(=O)N2CCOCC2)ccc1-c1cc(NC(=O)C2CC2)nc2[nH]ccc12 [Example 522, N-(4-(2-methyl-4-(morpholine-4-carbonyl)phenyl)-1H-pyrrolo[2,3-b]pyridin-6-yl)cyclopropanecarboxamide]
> 200 nM	N#CCC(=O)N1C[C@H]2C[C@@H]1CN2c1cc(NC(=O)C2CC2)nc2[nH]ccc12 [Example 681, N-(4-((1R,4R)-5-(2-cyanoacetyl)-2,5-diazabicyclo[2.2.1]heptan-2-yl)-1H-pyrrolo[2,3-b]pyridin-6-yl)cyclopropanecarboxamide]
< 20 nM	CCc1cc(NS(=O)(=O)CC2(CC#N)CC2)ccc1-c1cc(NC(=O)C2CC2)nc2[nH]ccc12 [Example 110, N-(4-(4-(((1-(cyanomethyl)cyclopropyl)methyl)sulfonamido)-2-ethylphenyl)-1H-pyrrolo[2,3-b]pyridin-6-yl)cyclopropanecarboxamide]

Structure (SMILES)	IC50
N#CCC1(N2CC=C(c3cc(NC(=O)C4CC4)nc4[nH]ccc34)CC2)CNC1 [Example 615, N-(4-(1-(3-(cyanomethyl)azetidin-3-yl)-1,2,3,6-tetrahydropyridin-4-yl)-1H-pyrrolo[2,3-b]pyridin-6-yl)cyclopropanecarboxamide]	20 to 200 nM

— patent publication US11524968B2, “Heterocyclic compound as a protein kinase inhibitor” (HK inno.N Corporation, priority 2017, dated 2022)
